Where “and” joins values, the source holds several entries; their conditions need not be identical. Equal entries are not always repeated. Square brackets hold non-standard residues; d marks the D form. Peptide text beside a SMILES is read from it. * marks the point of attachment. Piperidinyl(4-(1-Pro-OH)) = O=C(O)[C@@H]1CCCN1C1CCN(*)CC1; d(hArg) = N=C(N)NCCCC[C@@H](N)C(=O)O
Assays:
[1] = molecular target: T1, mouse kappa opioid receptor (mKOR) (Mus musculus, UniProt P33534); assay: cell-based; settings: for Emax: read-out: mKOR Efficacy(%)
T1 construct: Stimulation of Endogenous Mouse Kappa-Opioid Receptor in R1.G1 Cells; host or cells: R1.G1 mouse thymoma cells
T1 sequence (P33534 whole entry): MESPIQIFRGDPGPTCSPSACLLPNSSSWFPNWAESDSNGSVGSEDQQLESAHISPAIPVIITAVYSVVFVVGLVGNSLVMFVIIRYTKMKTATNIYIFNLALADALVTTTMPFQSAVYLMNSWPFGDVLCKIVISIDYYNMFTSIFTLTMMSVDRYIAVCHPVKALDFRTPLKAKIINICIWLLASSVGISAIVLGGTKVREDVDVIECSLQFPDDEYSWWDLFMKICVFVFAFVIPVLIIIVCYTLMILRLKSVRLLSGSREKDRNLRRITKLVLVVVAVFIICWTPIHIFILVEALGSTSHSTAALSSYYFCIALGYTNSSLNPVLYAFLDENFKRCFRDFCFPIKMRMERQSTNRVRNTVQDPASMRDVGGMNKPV

[2] = molecular target: T2, human kappa opioid receptor (hKOR) (Homo sapiens, UniProt P41145); assay: cell-based; settings: for Emax: HEK293, read-out: hKOR Efficacy(%)
T2 construct: expressed in transfected cells; host or cells: HEK-293 cells, transient transfection with Fugene6
T2 sequence (P41145 whole entry): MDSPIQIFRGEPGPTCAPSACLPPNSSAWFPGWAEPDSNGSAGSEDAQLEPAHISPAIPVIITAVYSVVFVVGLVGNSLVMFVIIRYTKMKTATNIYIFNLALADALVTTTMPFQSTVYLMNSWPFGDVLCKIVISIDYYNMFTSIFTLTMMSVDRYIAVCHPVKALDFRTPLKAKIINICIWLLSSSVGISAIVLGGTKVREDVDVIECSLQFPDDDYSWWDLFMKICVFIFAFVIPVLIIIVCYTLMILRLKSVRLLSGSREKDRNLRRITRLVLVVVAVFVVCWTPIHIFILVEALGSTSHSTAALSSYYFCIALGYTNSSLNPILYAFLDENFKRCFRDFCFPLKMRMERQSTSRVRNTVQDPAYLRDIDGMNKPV

ICR mice = assay: Acetic acid-induced writhing assay in mice; format: in vivo, mouse; settings: for ED50 (mg/kg, iv, 15 min post-dose): mice
[3] = tested on: albino New Zealand strain rabbits; assay: Capsaicin-induced ocular pain, palpebral opening; format: in vivo, rabbit; settings: Table VI, 10 mg/ml instilled, 10-30 min. post capsaicin, five animals
[4] = Pharmacokinetics in cynomolgus monkeys, plasma half life; settings: male, cynomolgus monkey, iv
human mu opioid receptor = molecular target: T3, human mu opioid receptor (Homo sapiens, UniProt P35372); assay: Similar assay for potency on the human mu opioid receptor; format: cell-based
T3 construct: expressed in transfected cells
T3 sequence (P35372 whole entry): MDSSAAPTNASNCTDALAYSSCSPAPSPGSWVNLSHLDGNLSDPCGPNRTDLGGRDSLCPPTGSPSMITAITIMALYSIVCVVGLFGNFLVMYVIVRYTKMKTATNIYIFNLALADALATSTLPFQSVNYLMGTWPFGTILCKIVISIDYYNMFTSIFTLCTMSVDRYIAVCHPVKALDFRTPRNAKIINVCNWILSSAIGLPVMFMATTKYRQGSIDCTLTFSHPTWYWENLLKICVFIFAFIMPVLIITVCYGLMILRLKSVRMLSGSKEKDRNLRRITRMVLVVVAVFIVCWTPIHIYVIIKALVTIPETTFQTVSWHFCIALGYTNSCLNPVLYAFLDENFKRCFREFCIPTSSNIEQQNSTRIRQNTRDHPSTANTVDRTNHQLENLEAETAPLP
Procedure: Synthetic peptide amides of the invention were tested in a similar assay for potency on the human mu opioid receptor.
The synthetic peptide amide (53) was tested in a similar assay for potency on the human mu opioid receptor.

CYP2C19 = CYP2C19 (Homo sapiens, UniProt P33261); assay: Cytochrome P450 CYP2C19 inhibition in human liver microsomes; settings: percent remaining CYP activity, 10 μM test compound, (54) in Expt 1 and Expt 2
CYP2C19, sequence (P33261 whole entry): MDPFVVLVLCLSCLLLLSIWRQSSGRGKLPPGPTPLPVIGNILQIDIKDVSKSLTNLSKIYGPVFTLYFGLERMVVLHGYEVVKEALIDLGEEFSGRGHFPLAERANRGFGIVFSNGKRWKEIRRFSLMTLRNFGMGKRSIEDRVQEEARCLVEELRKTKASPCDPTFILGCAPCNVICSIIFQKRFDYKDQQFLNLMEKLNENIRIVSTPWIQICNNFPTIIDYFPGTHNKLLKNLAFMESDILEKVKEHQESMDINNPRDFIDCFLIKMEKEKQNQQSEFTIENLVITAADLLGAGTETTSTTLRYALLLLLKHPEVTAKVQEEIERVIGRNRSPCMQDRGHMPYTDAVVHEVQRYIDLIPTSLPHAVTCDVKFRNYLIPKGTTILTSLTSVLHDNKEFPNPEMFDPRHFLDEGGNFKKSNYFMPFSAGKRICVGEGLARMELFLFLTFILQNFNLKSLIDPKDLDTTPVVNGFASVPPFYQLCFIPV

CYP2D6 = CYP2D6 (Homo sapiens, UniProt P10635); assay: Cytochrome P450 CYP2D6 inhibition in human liver microsomes; settings: percent remaining CYP activity, 10 μM test compound, (54) in Expt 1 and Expt 2
CYP2D6, sequence (P10635 whole entry): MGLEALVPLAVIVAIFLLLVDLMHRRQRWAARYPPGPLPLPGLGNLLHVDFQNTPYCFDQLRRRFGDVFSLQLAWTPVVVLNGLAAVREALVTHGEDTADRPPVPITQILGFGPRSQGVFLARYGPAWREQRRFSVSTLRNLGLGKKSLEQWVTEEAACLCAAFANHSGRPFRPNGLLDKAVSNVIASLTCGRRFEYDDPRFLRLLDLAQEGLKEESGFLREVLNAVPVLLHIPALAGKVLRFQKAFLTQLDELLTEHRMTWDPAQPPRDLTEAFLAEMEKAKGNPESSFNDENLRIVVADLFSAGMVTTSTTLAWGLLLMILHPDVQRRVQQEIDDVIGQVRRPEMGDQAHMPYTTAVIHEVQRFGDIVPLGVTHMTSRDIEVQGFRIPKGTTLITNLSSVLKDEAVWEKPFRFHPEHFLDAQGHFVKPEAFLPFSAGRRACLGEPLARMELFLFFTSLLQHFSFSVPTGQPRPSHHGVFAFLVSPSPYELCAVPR

CYP2C9 = CYP2C9 (Homo sapiens, UniProt P11712); assay: Cytochrome P450 CYP2C9 inhibition in human liver microsomes; settings: percent remaining CYP activity, 10 μM test compound, (54) in Expt 1 and Expt 2
CYP2C9, sequence (P11712 whole entry): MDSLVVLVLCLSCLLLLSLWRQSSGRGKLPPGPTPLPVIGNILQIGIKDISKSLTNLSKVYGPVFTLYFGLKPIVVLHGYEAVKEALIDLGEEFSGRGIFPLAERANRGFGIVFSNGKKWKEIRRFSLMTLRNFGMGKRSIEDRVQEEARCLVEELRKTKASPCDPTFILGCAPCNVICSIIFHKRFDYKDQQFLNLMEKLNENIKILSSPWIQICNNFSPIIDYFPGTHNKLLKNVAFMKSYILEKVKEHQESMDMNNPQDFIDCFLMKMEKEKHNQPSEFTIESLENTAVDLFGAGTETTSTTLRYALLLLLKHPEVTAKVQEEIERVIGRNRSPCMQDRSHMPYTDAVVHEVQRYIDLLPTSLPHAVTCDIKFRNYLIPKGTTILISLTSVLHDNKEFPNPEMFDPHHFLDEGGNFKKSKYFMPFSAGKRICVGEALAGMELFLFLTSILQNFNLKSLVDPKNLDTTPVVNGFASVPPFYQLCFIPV

CYP1A = assay: Cytochrome P450 CYP1A inhibition in human liver microsomes; format: in vitro ADME; settings: percent remaining CYP activity, 10 μM test compound, (54) in Expt 1 and Expt 2
Procedure: Inhibition of cytochrome P450 oxidase isozymes CYP1A, CYP2C9, CYP2C19, CYP2D6 and CYP3A4 by synthetic peptide amide compounds of the invention was determined according to the following methods performed by Cerep (Seattle, Wash.):
In the cytochrome P450 CYP1A assay, human liver microsomes (0.2 mg/ml protein) were incubated for 15 minutes at 37° C. with 10 μM test compound, 1 μM ethoxyresorufin, 1.3 mM NADP, 3.3 mM glucose-6-phosphate and 0.4 U/ml glucose-6-phosphate dehydrogenase. In the absence of test compound, the ethoxyresorufin added as substrate is oxidized to resorufin, and in the presence of an inhibitor of the CYP isozyme, the amount of resorufin produced is reduced. Furafylline was used as a reference inhibitor.
In each assay, the percent inhibition of the cytochrome P450 CYP P450 isozyme was determined as one hundred times the ratio of (1-minus the amount of product in the sample in the presence of the test compound) divided by the amount of product in the sample containing untreated isozyme.

CYP3A4 = CYP3A4 (Homo sapiens, UniProt P08684); assay: Cytochrome P450 CYP3A4 inhibition in human liver microsomes (midazolam); settings: percent remaining CYP activity, 10 μM test compound, (54) in Expt 1 and Expt 2
CYP3A4, sequence (P08684 whole entry): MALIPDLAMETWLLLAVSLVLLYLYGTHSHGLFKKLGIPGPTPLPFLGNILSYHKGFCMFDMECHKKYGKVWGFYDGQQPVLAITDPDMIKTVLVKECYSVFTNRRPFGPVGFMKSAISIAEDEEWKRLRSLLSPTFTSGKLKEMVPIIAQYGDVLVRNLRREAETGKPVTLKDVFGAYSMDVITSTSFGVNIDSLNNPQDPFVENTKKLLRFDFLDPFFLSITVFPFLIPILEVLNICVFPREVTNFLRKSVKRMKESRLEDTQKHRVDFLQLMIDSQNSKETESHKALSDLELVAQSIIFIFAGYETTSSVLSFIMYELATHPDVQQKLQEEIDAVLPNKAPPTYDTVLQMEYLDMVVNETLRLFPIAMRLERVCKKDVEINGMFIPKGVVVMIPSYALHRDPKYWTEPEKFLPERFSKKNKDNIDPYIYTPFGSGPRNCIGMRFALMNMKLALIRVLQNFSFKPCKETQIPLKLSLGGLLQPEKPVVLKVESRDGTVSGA

[5] = Inhibition of locomotion in mice (locomotion reduction assay, sedation); settings: mouse, in vivo, sc, subcutaneous, sedative effect
Procedure: To determine the potential sedative effect of test compounds, the extent of locomotion after the administration of the test compound or vehicle control can be determined and compared with a specialized apparatus designed for this purpose (Opto-Varimex Activity Meter). At the start of each experiment, each mouse was weighed and examined to determine good health. […] The subcutaneous injection was performed in the back of the neck of the mouse, pinched in a “tent” to allow proper access for the syringe needle. After injection, each animal was placed individually in Plexiglas boxes (43 cm×43 cm) inside the Opto-Varimex Activity Meter apparatus. Before the animal was placed in the apparatus, a thin layer of SANI-CHIPS rodent bedding was placed on the bottom of the Plexiglas box to provide a comfortable environment. Each Opto-Varimex Activity Meter apparatus was then turned on and data acquisition begun by the ATM3 Auto-Track System. The data were processed and results expressed in the same way as described for the writhing assay data above.

[6] = Caco-2 (TC7 subclone) membrane permeability, apical-to-basolateral; settings: human

| SMILES | EC50 [1] [nM] | Emax [1] [%] | EC50 [2] [nM] | Emax [2] [%] | other results |
| --- | --- | --- | --- | --- | --- |
| CC(C)C[C@@H](NC(=O)[C@@H](Cc1ccccc1)NC(=O)[C@H](N)Cc1ccccc1)C(=O)N[C@H](CCCCN)C(=O)N1CCC(N)(C(=O)O)CC1 [Compound (2), D-Phe-D-Phe-D-Leu-D-Lys-[ω(4-aminopiperidine-4-carboxylic acid)]-OH] | 0.048 | 96 | 0.16 | 99 | ED50 (mg/kg, iv, 15 min post-dose) (ICR mice; iv): 0.07 mg/kg; % MPE (240 min post-ED90) (ICR mice; iv, 240 min post-ED90): 81 ± 4%; % MPE (300 min post-ED90) (ICR mice; iv, 300 min post-ED90): 84 ± 4% |
| CC(C)C[C@@H](NC(=O)[C@@H](Cc1ccccc1)NC(=O)[C@H](N)Cc1ccccc1)C(=O)N[C@H](CCCCN)C(=O)N1CCC(N2CCC[C@H]2C(=O)O)CC1 [Compound (4), D-Phe-D-Phe-D-Leu-D-Lys-[N-(4-piperidinyl)-L-proline]-OH] | 0.075 | 94 | 0.15 | 92 | Mean (% Control) palpebral opening [3]: 56.7 % Control |
| CC(C)C[C@@H](NC(=O)[C@@H](Cc1ccccc1)NC(=O)[C@H](N)Cc1ccccc1)C(=O)N[C@H](CCCCNC(=N)N)C(=O)N1CCC(N2CCC[C@H]2C(=O)O)CC1 [Compound (5), D-Phe-D-Phe-D-Leu-D-Har-[N-(4-piperidinyl)-L-proline]-OH] (H-[dF][dF][dL][d(hArg)]-{Piperidinyl(4-(1-Pro-OH))}) | 0.034 | 89 | 0.17 | 98 | ED50 (mg/kg, iv, 15 min post-dose) (ICR mice; iv): 0.01 mg/kg; % MPE (180 min post-ED90) (ICR mice; iv, 180 min post-ED90): 54 ± 10% |
| C/N=C(/N)N1CCCN(C(=O)[C@@H](CCCN)NC(=O)[C@@H](CC(C)C)NC(=O)[C@@H](Cc2ccccc2)NC(=O)[C@H](N)Cc2ccccc2)CC1 [Compound (52), D-Phe-D-Phe-D-Leu-D-Orn-[4-(N-methyl)amidino-homopiperazine amide]] | 0.035 | 101 | 0.18 | 96 | half-life [4]: 1.15 h |
| CC(C)C[C@@H](NC(=O)[C@@H](Cc1ccccc1)NC(=O)[C@H](N)Cc1ccccc1)C(=O)N[C@H](CCCN)C(=O)N1CCCN(C(=N)N)CC1 [Compound (53), D-Phe-D-Phe-D-Leu-D-Orn-[4-amidinohomopiperazine amide]] | 0.03 |  | 0.15 | 103 | EC50 (human mu opioid receptor): ≥ 1000 nM |
| CC(C)C[C@@H](NC(=O)[C@@H](Cc1ccccc1)NC(=O)[C@H](N)Cc1ccccc1)C(=O)N[C@H](CCCN)C(=O)N1CCCN(C2=NCCN2)CC1 [Compound (54), D-Phe-D-Phe-D-Leu-D-Orn-[4-(4,5-dihydro-1H-imidazol-2-yl)homopiperazine amide]] | 0.056 | 99 | 0.13 | 90 | Percent Activity of Cytochrome P450 CYP2C19 (CYP2C19): 94.1% and 97.8%; Percent Activity of Cytochrome P450 CYP2D6 (CYP2D6): 98.4% and 98.2%; Percent Activity of Cytochrome P450 CYP2C9 (CYP2C9): 99.2% and 98.2%; ED50 in the acetic acid-induced writhing assay (ICR mice; subcutaneous, ICR mice): 0.074 mg/kg; Percent Activity of Cytochrome P450 CYP1A (CYP1A): 97.1% and 95.8%; Percent Activity of Cytochrome P450 CYP3A4 (CYP3A4): 94.7% and 95.9%; ED50 [5]: 3.17 mg/kg |
| CNC(=C[N+](=O)[O-])NCCSCc1ccc(CN(C)C)o1 [Ranitidine, ranitidine] |  |  |  |  | Papp A→B at 60 min, 10 μM [6]: 0.5 ×10⁻⁶ cm/s |
